Key:
[1] = pKa and base-form fraction of local anesthetics in aqueous solution; format: physicochemical
Text: The pKa is the pH at which 50% of the drug in an aqueous solution will be in the base form and 50% in the ion or charged form. As the pH of the solution falls, more of the drug converts into the ion form. Since the pH scale is a logarithmic scale, these changes are quite marked over a small pH range.
The pKa is the pH at which 50% of the drug in solution will be in the base form and 50% in the salt form. As the pH rises above the pKa, more of the drug will dissociate and convert into the free base non-ionic form. […] Local anesthetics and their pharmacology are discussed in detail in Remington's Pharmaceutical Sciences, A. Osol, ed., Mack Pub. Co., Easton, Pa. (16th ed. 1980) and the Merck Index (11th ed., 1989).

[2] = not given; remark: listed apart in the source
mast cells = conditions: low concentrations, opposite effect to inhibition; cited from earlier work

**Q.** What does the source list for `CCN(CC)CC(=O)Nc1c(C)cccc1C` [lidocaine]?
**A.** fraction of drug in the base form ([1]; pH 5.8): 0.5%; fraction of drug in the base form ([1]; pH 6.8): 5%; peak blood levels of radiolabeled lidocaine (anesthetized rabbits, intra-vesical, pH 8.1): 800 CPM/0.1 ml of blood; tissue levels of radioactive labeled lidocaine in bladder mucosa (live rabbit bladder, 45 minutes in situ, pH 8.45): declined rapidly to almost the same as at the pH levels below 8.0; peak tissue levels of radioactive labeled lidocaine in bladder mucosa (live rabbit bladder, 45 minutes in situ, pH between 8.1 and 8.25): around 3,500,000 CPM/g of tissue; lidocaine levels compared with previously reported levels ([2]; alkalinized intravesical lidocaine, serum): ten times higher; peak blood (serum) levels of lidocaine ([2]; human volunteers, 4, 5 or 6 mg/kg 5% lidocaine intravesical with 8.4% sodium bicarbonate, pH 8.0, all subjects, within the first hour): 0.5-2 ug/cc; mean peak concentration of lidocaine in blood ([2]; human volunteers, at 30 minutes): 1.06 µg/mL; concentration at which lidocaine causes mast cells to release their histamine content (mast cells): < 1 mmol

Source: patent publication US20050238733A1, “Topical anesthesia of the urinary bladder” (priority 2000, published 2005)
